In US10092547B2, “Substituted aliphanes, cyclophanes, heteraphanes, heterophanes, hetero- heteraphanes and metallocenes useful for treating HCV infections” (priority 2011, dated 2018):

Tests used:
[1] = system: HCV replicon (NS5A1b) in Huh-7 cells; assay: microbe, parasite or virus in culture; type: cell-based; details: Hepatitis C virus, 72 h; NS5A1b; HCV replicon-containing Huh-7 cells, three days; read-out: EC50 (μM) NS5A1b
Experimental: (§1) Compounds claimed herein are tested for the ability to inhibit viral replication of the Hepatitis C replicon in cultured cells in which the HCV replicon construct has been incorporated. The HCV replicon system was described by Bartenschlager, et. al (Science, 285, pp. 110-113 (1999)). The replicon system is predictive of in vivo anti-HCV activity; compounds that are active in humans uniformly evidence activity in the replicon assay.
(§2) In this assay HCV replicon containing cells are treated with different concentrations of the test compound to ascertain the ability of the test compound to suppress replication of the HCV replicon. As a positive control, HCV replicon-containing cells are treated with different concentrations of interferon alpha, a known inhibitor of HCV replication. The replicon assay system includes Neomycin Phosphotransferase (NPT) as a component of the replicon itself in order to detect the transcription of replicon gene products in the host cell. Cells in which the HCV replicon is actively replicating have high levels of NPT; the level of NPT is proportional to HCV replication. […] The NPT level of each sample is measured using a captured ELISA.
(§3) A protocol for testing compounds for the ability to inhibit viral replication of the Hepatitis C replicon cultured cells in which the replicon construct has been incorporated, follows.
(§4) The HCV replicon contains, 5′-3′, the HCV-IRES, the neomycin phosphotransferase (neo) gene, the IRES of encephalomyocarditis virus, which directs translation of HCV sequences NS3 to NS5B, and the 3′-NTR. The sequence of the HCV replicon has been deposited in GenBank (Accession no. AJ242652).
(§5) The replicon is transfected into Huh-7 cells using standard methods such as electroporation.
(§6) The equipment and materials include, but are not limited to, Huh-7 HCV replicon-containing cells, maintenance media (DMEM (Dulbecco's modified Eagle media) supplemented with 10% FBS, L-glutamine, non-essential amino acids, penicillin (100 units/ml), streptomycin (100 micrograms/ml), and 500 micrograms/ml of Geneticin (G418), screening media (DMEM supplemented with 10% FBS, L-glutamine, non-essential amino acids, penicillin (100 units/ml) and streptomycin (100 micrograms/ml), 96 well tissue culture plates (flat bottom), 96 well plates (U bottom for drug dilution), Interferon alpha for positive control, fixation reagent (such as methanol: acetone), primary antibody (rabbit anti-NPTII), secondary antibody: Eu-N1 1, and enhancement solution.
(§7) HCV replicon-containing cells support high levels of viral RNA replicon replication when their density is suitable. Over-confluency causes decreased viral RNA replication. Therefore, cells must be kept growing in log phase in the presence of 500 micrograms/ml of G418. Generally, cells should be passed twice a week at 1:4-6 dilution. Cell maintenance is conducted as follows:
(§8) HCV replicon-containing cells are examined under a microscope to ensure that cells growing well. Cells are rinsed once with PBS and 2 ml trypsin is added. The cell/trypsin mixture is incubated at 37° C. in a CO2 incubator for 3-5 minutes. After incubation 10 ml of complete media is added to stop the trypsinization reaction. Cells are blown gently, put into a 15 ml tube, and spun at 1200 rpm for 4 minutes. The trypsin/medium solution is removed. Medium (5 ml) is added and the cells are mixed carefully. The cells are counted.
(§9) The cells are then seeded onto 96-well plates at a density of 6000-7500 cells/100 microliters/well (6-7.5×10^5 cells/10 ml/plate). The plates are then incubated at 37° C. in a 5% CO2 incubator.
(§10) Cells are examined under a microscope approximated 24 hours after seeding and prior to adding drugs. If counting and dilution were performed correctly, cells are 60-70% confluent and nearly all cells should attach and spread evenly in the well.
(§11) HCV replicon-containing cells are rinsed with once PBS once; 2 mls of trypsin are then added. Cells are incubated at 37° C. in a 5% CO2 incubator for 3-5 minutes. […]

HCV replicon (NS5A1b) = assay: microbe, parasite or virus in culture; type: cell-based; details: Hepatitis C virus, 72 h, HCV replicon-containing cells, three days
Experimental: as §1, §2, §3, §4, §5, §6, §7, §8, §9, §10, §11

Row | SMILES | EC50 [1] [nM] | EC50 (HCV replicon (NS5A1b)) [µM]
1 | COC(=O)N[C@H](C(=O)N1C2CCC(C2)[C@H]1c1nc2cc(-c3cc4ccc3CCc3ccc(c(-c5ccc6[nH]c([C@@H]7C8CCC(C8)N7C(=O)[C@@H](NC(=O)OC)C(C)C)nc6c5)c3)CC4)ccc2[nH]1)C(C)C [Compound 42] | < 3.2 | 0.0044
2 | COC(=O)N[C@H](C(=O)N1C[C@H](F)C[C@H]1c1nc2cc(-c3cc4ccc3CCc3ccc(c(-c5ccc6[nH]c([C@@H]7C[C@@H](F)CN7C(=O)[C@@H](NC(=O)OC)C(C)C)nc6c5)c3)CC4)ccc2[nH]1)C(C)C [Compound 87] | 6.53 | 0.0184
3 | COC(=O)N[C@@H](CCSC)C(=O)N1C[C@H](F)C[C@H]1c1nc2cc(-c3cc4ccc3CCc3ccc(c(-c5ccc6[nH]c([C@@H]7C[C@@H](F)CN7C(=O)[C@H](CCSC)NC(=O)OC)nc6c5)c3)CC4)ccc2[nH]1 [Compound 88] | 6.43 | 0.0618
4 | CC[C@H](C)[C@H](NC(=O)OC)C(=O)N1[C@H](c2nc3cc(-c4cc5ccc4CCc4ccc(c(-c6ccc7[nH]c([C@@H]8C[C@@H]9CCCC[C@@H]9N8C(=O)[C@@H](NC(=O)OC)[C@@H](C)CC)nc7c6)c4)CC5)ccc3[nH]2)C[C@@H]2CCCC[C@@H]21 [Compound 102] | 11.9 | 0.0358
5 | CC[C@H](C)[C@H](NC(=O)OC)C(=O)N1CCC[C@H]1c1nc2cc(-c3cc4ccc3CCc3ccc(c(-c5ccc6[nH]c([C@@H]7CCCN7C(=O)[C@@H](NC(=O)OC)[C@@H](C)CC)nc6c5)c3)CC4)ccc2[nH]1 [Compound 103] | < 3.17 | 0.47
6 | COC(=O)N[C@H](C(=O)N1CCC[C@H]1c1nc2cc(-c3cc4ccc3CCc3ccc(c(-c5ccc6[nH]c([C@@H]7CCCN7C(=O)[C@@H](NC(=O)OC)[C@@H](C)OC)nc6c5)c3)CC4)ccc2[nH]1)[C@@H](C)OC [Compound 109] | 8.83 | 0.0118
7 | COC(=O)N[C@H](C(=O)N1C(c2nc3ccc(-c4cc5ccc4CCc4ccc(c(-c6ccc7nc(C8C[C@@H]9CCCC[C@@H]9N8C(=O)[C@@H](NC(=O)OC)C(C)C)n(COC(=O)[C@@H](N)C(C)C)c7c6)c4)CC5)cc3n2COC(=O)[C@@H](N)C(C)C)C[C@@H]2CCCC[C@@H]21)C(C)C (stereo partly shown) [Compound 130] | 0.009 | –
